Results: US6599283B1, “Method of preventing reperfusion injury” (priority 2001, dated 2003)

Tests used:
[1] = system: AMI patients undergoing primary PTCA; details: in vivo
Method: (§1) Fifty four AMI patients undergoing primary PTCA were randomized to intracoronary adenosine or saline. The 2 groups were similar for age, sex, and infarct location. Patients referred for PTCA within 3 hours from the onset of AMI were considered for the study. Patients underwent diagnostic coronary angiography. If the culprit lesion was suitable for PTCA and presented with a TIMI flow from 0 to 2, the patient was included in the study and randomized after informed consent had been obtained. Patients presenting with TIMI 3 flow were diagnosed as having spontaneous reperfusion and were not included in the study.
(§2) After left and right coronary arteriography by the femoral approach, a temporary pacing wire was advanced into the right ventricle and connected with a pacemaker left on demand at 60 bpm. […] The guidewire was then readvanced into the distal vessel, and the balloon was deflated to initiate reperfusion of the ischemic territory. […]
(§3) The primary end points of this study were feasibility and safety of intracoronary adenosine administration in the setting of primary PTCA and its effect on coronary blood flow. As secondary end points, indexes of myocardial damage, including left ventricular regional function, Q-wave MI, recurrence of angina, nonfatal MI, heart failure, and cardiac death were evaluated.

[2] = system: AMI patients undergoing primary PTCA; assay: Metabolic data: creatine kinase (CK) and CK-MB; type: in vivo, human; details: mean ± SD
Method: as §1
as §2, with “bpm. The obstruction of the infarct-related artery was crossed with a 0.014-in guidewire, and an over-the-wire balloon catheter was positioned at the level of the obstruction. The wire was pulled out, and diluted contrast was injected through the central lumen of the catheter to confirm positioning of the catheter tip downstream of the obstruction and to assess patency of the distal vessel.” for “bpm.”

infarct-related artery = assay: Angiographic analysis (residual stenosis, TIMI flow, no-reflow) after primary PTCA; type: in vivo, human
Method: as §1
After left and right coronary arteriography by the femoral approach, a temporary pacing wire was advanced into the right ventricle and connected with a pacemaker left on demand at 60 bpm. The obstruction of the infarct-related artery was crossed with a 0.014-in guidewire, and an over-the-wire balloon catheter was positioned at the level of the obstruction. The wire was pulled out, and diluted contrast was injected through the central lumen of the catheter to confirm positioning of the catheter tip downstream of the obstruction and to assess patency of the distal vessel. The balloon was inflated, and either adenosine (4 mg in 2 mL saline) or saline (2 mL) was hand-injected into the distal vascular bed in a random fashion. The rate of injection was such as to complete treatment in 1 minute. The guidewire was then readvanced into the distal vessel, and the balloon was deflated to initiate reperfusion of the ischemic territory. The dilatation procedure was completed according to standard technique. Stenting of the dilated coronary segment was performed only for suboptimal balloon results or flow-limiting dissections. […]
The angiograms were reread as a single group, in chronological sequence, by observers who had not participated in the invasive procedure and were blinded to the treatment received. […] Diameter stenosis was measured by an automatic edge-detection system (Mipron, Kontron). […]

left ventricle = assay: Left ventricular regional function by 2D echocardiography; type: in vivo, human; details: echocardiogram after 1 week vs admission
Method: as §1
(§4) After left and right coronary arteriography by the femoral approach, a temporary pacing wire was advanced into the right ventricle and connected with a pacemaker left on demand at 60 bpm. The obstruction of the infarct-related artery was crossed with a 0.014-in guidewire, and an over-the-wire balloon catheter was positioned at the level of the obstruction. The wire was pulled out, and diluted contrast was injected through the central lumen of the catheter to confirm positioning of the catheter tip downstream of the obstruction and to assess patency of the distal vessel. The balloon was inflated, and either adenosine (4 mg in 2 mL saline) or saline (2 mL) was hand-injected into the distal vascular bed in a random fashion. The rate of injection was such as to complete treatment in 1 minute. The guidewire was then readvanced into the distal vessel, and the balloon was deflated to initiate reperfusion of the ischemic territory. The dilatation procedure was completed according to standard technique. Stenting of the dilated coronary segment was performed only for suboptimal balloon results or flow-limiting dissections. […] The final angiogram was then obtained, and the patient was transferred to the intensive coronary care unit. If symptoms and/or ECG changes consistent with vessel reclosure occurred during this interval, coronary angiography was performed immediately, and therapeutic measures were applied. The dilation procedure was limited to the culprit lesion in all patients.
Left ventricular function was evaluated by 2D echocardiography within 24 hours from admission and after 1 week. Echocardiography was performed with the patient lying supine with a 2.5-MHz transducer fitted to a dedicated system (Hewlett-Packard Sonos 1500). Images were recorded on S-VHS tapes and analyzed offline by 2 experienced observers blinded to the angiographic data. Four views were used: the parasternal long- and short-axis (at the level of the papillary muscle) and apical 2- and 4-chamber views. The left ventricle was divided into 16 segments. In each segment, wall motion was graded as normal, hypokinetic, akinetic, or dyskinetic. Segmental motion at admission was compared with segmental motion at 1 week to detect changes of regional function.

[3] = system: AMI patients undergoing primary PTCA; assay: Clinical events / clinical course in hospital after primary PTCA; type: in vivo, human
Method: as §1, §4, §3
Physicians in charge of the patients in the intensive coronary care unit were informed of the angiographic results of the PTCA but were blinded to the intracoronary treatment administered during the procedure.

[4] = intracoronary adenosine 4 mg in 2 mL saline, n = 27

Nc1ncnc2c1ncn2[C@@H]1O[C@H](CO)[C@@H](O)[C@H]1O [Adenosine, adenosine]
Bradyarrhythmias or tachyarrhythmias associated with protocol [1]: No bradyarrhythmias or tachyarrhythmias
Peak CK [2]: 1994±1782 U/L
Peak CK-MB [2]: 156±142 UAL
Residual diameter stenosis by quantitative coronary arteriography (infarct-related artery; after PTCA, mean ± SD): 27.8±9.5%
Flow in the infarct-related artery (TIMI grade) (infarct-related artery; at the end of the dilation procedure): TIMI 3 in all adenosine patients
No-reflow phenomenon (drop of ≧1 TIMI grades in final angiogram relative to post-PTCA angiogram) (infarct-related artery; final angiogram 30 minutes after dilation, n = 27): 1 patient
Regional wall motion unchanged (left ventricle): 38 segments
Worsening of wall motion, share of segments (left ventricle): 2%
Wall motion improved, share of initially dyssynergic segments (left ventricle; 114 dyssynergic segments): 64%
Worsening of wall motion (left ventricle; 114 dyssynergic segments): 3 segments
Wall motion improved, initially dyssynergic segments (left ventricle; 114 dyssynergic segments, 23 patients): 73 segments
Length of hospital stay ([3]; hospital stay): 9.1 ± 0.8 days
Recurrent angina and/or ischemia ([3]; intracoronary adenosine 4 mg in 2 mL saline into distal vascular bed before balloon deflation, n = 27): 3(11) number (%) of patients
Cardiac death [3, 4]: 0(0) number (%) of patients
Cumulative clinical end points (recurrent angina and/or ischemia, non-fatal AMI, heart failure, cardiac death) [3, 4]: 5(18) number (%) of patients
Heart failure [3, 4]: 2(7) number (%) of patients
Nonfatal AMI [3, 4]: 0(0) number (%) of patients
Clinical diagnosis of heart failure ([3]; n = 27): Two
Composite end point of recurrent angina, nonfatal MI, heart failure, and cardiac death ([3]; n = 27): 5 patients
Deaths in hospital ([3]; n = 27): No deaths
Developed a Q-wave ML ([3]; n = 27): Sixteen
Recurrence of angina ([3]; n = 27): Three
